Source: patent US7008943B2, “1-(Pyrrolidin-1-ylmethyl)-3-(pyrrol-2-ylmethylidene)-2-indolinone derivatives” (Pharmacia & Upjohn Company, priority 2000, dated 2006)

How the values were obtained:
[1] = Plasma Stability Test: conversion of prodrug to drug after IV administration to dogs, HPLC analysis of blood plasma; assay type: in vivo; details: IV at 2 mg/mL, blood plasma followed by HPLC for 4 hours following dosing
Method: The prodrug (3Z)-3-[(3,5-dimethyl-1H-pyrrol-2-yl)-methylidene]-1-(1-pyrrolidinylmethyl)-1,3-dihydro-2H-indol-2-one was administered IV at 2 mg/mL to dogs. Levels of both prodrug and drug (3(Z)-3-[(3,5-dimethyl-1H-pyrrol-2-yl)-methylidene]-1,3-dihydro-2H-indol-2-one) were followed by HPLC analysis of blood plasma for 4 hours following dosing.

[2] = Aqueous solubility of prodrug versus parent compound; assay type: physicochemical; details: versus parent compound (II)
Description: The prodrug compounds of the present invention have advantages over compounds of Formula (II) by virtue of improved aqueous solubility and formulability. […] It is contemplated that similar enhanced solubility will be observed for other compounds of Formula (I) carrying the pyrrolidin-1-ylmethyl moiety at the nitrogen of the indolinone ring. A general description of the advantages and uses of prodrugs as pharmaceutically useful compounds is given in an article by Waller and George in Br. J Clin. Pharmac., Vol. 28, pp. 497–507, 1989.

Compound: Cc1cc(C)c(/C=C2\C(=O)N(CN3CCCC3)c3ccccc32)[nH]1 [Example 1, (3Z)-3-[(3,5-Dimethyl-1H-pyrrol-2-yl)-methylidene]-1-(1-pyrrolidinylmethyl)-1,3-dihydro-2H-indol-2-one]
- half-life for conversion of the prodrug to drug [1]: 7.3 min
- prodrug converted into drug (from area under the curve of drug concentration vs. time) [1]: 80%
- aqueous solubility compared with the parent compound [2]: increased aqueous solubility
